One test concerns Unfractionated heparin. The test is described as follows: aPTT clotting assay, UFH 0.4 U/mL in plasma (Example 10). The class given is biochemical. As to conditions: unfractionated heparin 0.4 U/mL in plasma; aPTT clotting. How it is done:
aPTT clotting Assay: Unfractionated heparin was mixed with plasma at a final concentration of 0.4 U/mL (or concentration which increases aPTT time to between 120 and 300 seconds). […] The ACL Elite Hemostasis analyzer (Beckman Coulter™) was used to add aPTT reagent (HemosIL SynthASil) to supplemented plasma. Clotting was initiated by addition of CaCl2 and time to clot was recorded.

Another test relates to enoxaparin. As to the kind of experiment: FXa amidolytic assay (Example 10), enoxaparin. Particulars: read-out: Enox FXa EC50; enoxaparin 0.1 ug/ml; human antithrombin, bovine Factor Xa.
Another test deals with tinzaparin. The test is described as follows: FXa amidolytic assay (Example 10), tinzaparin. As to conditions: read-out: Tinzap FXa EC50; tinzaparin 0.1 ug/ml; human antithrombin, bovine Factor Xa.
In the next test the test system is fondaparinux. The test is described as follows: FXa amidolytic assay (Example 10), fondaparinux. Particulars: read-out: Fondap FXa EC50; fondaparinux 0.02 μg/mL; human antithrombin, bovine Factor Xa.

Values joined by “and” are separate entries in the source; they are usually repeats but may differ in a detail not shown here. Equal entries are not always repeated.

Procedure for enoxaparin: (§1) Two μl of test agent are added (range between 0.01 and 23 ug/ml) and incubated for 5 minutes at 23° C. Bovine Factor Xa was added to a final concentration of 0.636 nkat/mL and incubated for a further 10 minutes at 23° C.
Procedure for fondaparinux: as §1
Procedure for tinzaparin: as §1

On to `COc1cc(OC)c(C(=O)N[C@H]2CC[C@H](NC(=O)c3cc(C(=O)NCCN(C)C)c(OCCCCCNC(=N)N)cc3OCCCCCNC(=N)N)CC2)cc1C(=O)N[C@H]1CC[C@@H](NC(=O)c2cc(C(=O)NCCN(C)C)c(OCCCCCNC(=N)N)cc2OCCCCCNC(=N)N)CC1` [Compound 222], for which the EC50 (in general, the concentration giving half of the maximal effect) in the test with Unfractionated heparin turned out to be 2.59 µM; with enoxaparin, 0.173 µM; in the test with tinzaparin, 0.115 µM; with fondaparinux, 0.955 µM.
For the compound `COc1ccc(NC(=O)[C@H](CCCNC(=N)N)NC(=O)c2cc(NC(=O)[C@H](CCCNC(=N)N)NC(=O)c3cc(NC(=O)[C@H](CCCNC(=N)N)NC(=O)c4cc(NC(=O)[C@H](C)NC(=O)CCCCNC(=N)N)ccc4OC)ccc3OC)ccc2OC)cc1C(N)=O` [Compound 223], the EC50 in the test with Unfractionated heparin came out at 4.09 µM; in the test with enoxaparin it was 0.316 µM; with tinzaparin it was 0.248 µM; in the test on fondaparinux it was 0.802 µM.
With `COc1ccc(NC(=O)[C@H](CCCNC(=N)N)NC(=O)c2cc(NC(=O)[C@H](CCCNC(=N)N)NC(=O)c3cc(NC(=O)[C@H](C)NC(=O)CCCCNC(=N)N)ccc3OC)ccc2OC)cc1C(N)=O` [Compound 224], the EC50 with Unfractionated heparin came out at 7.23 µM; in the test on enoxaparin, 1.02 µM; in the test with tinzaparin, 0.792 µM; with fondaparinux, 4.45 µM.
As to `COc1cc(OC)c(C(=O)N[C@H]2CC[C@H](NC(=O)c3cc(C(=O)NCCN(C)C)c(OCCCCCN)cc3OCCCCCN)CC2)cc1C(=O)NCCN(C)C` [Compound 228], the EC50 in the test on Unfractionated heparin was 1.11 µM; in the test with enoxaparin, 0.281 µM; in the test with tinzaparin, over 5 µM; in the test on fondaparinux, over 10 µM.
For `[2H]C(C([2H])C([2H])([2H])CN)[C@H](N)C(=O)Nc1ccc(OC)c(C(=O)N[C@@H](CCCCN)C(=O)Nc2ccc(OC)c(C(=O)N[C@@H](CCCCN)C(=O)Nc3ccc(OC)c(C(=O)N[C@@H](CCCCN)C(=O)Nc4ccc(OC)c(C(N)=O)c4)c3)c2)c1` (stereo partly drawn) [Compound 230] the same measures were 2.78 µM, 0.252 µM, 0.147 µM and 4.88 µM.
`COc1ccc(NC(=O)[C@H](CCCCN)NC(=O)c2cc(NC(=O)[C@H](CCCCN)NC(=O)c3cc(NC(=O)[C@H](CCCCN)NC(=O)c4cc(NC(=O)[C@H](N)CCCCN)ccc4OC)ccc3OC)ccc2OC)cc1C(N)=O` [Compound 231]: the EC50 in the test with Unfractionated heparin was 2.31 µM; with enoxaparin, 0.192 µM; in the test with tinzaparin, 0.099 µM; in the test on fondaparinux it was 3.56 µM.
With `COc1ccc(NC(=O)[C@H](C)NC(=O)c2cc(NC(=O)[C@H](CCCCN)NC(=O)c3cc(NC(=O)[C@H](CCCCN)NC(=O)c4cc(NC(=O)[C@@H](N)CCCCN)ccc4OC)ccc3OC)ccc2OC)cc1C(N)=O` [Compound 232], the EC50 with Unfractionated heparin is 3.24 µM; in the test with enoxaparin it was 0.862 µM; in the test with tinzaparin, 0.536 µM; in the test with fondaparinux, over 10 µM.
As to `COc1ccc(NC(=O)[C@H](CCCCN)NC(=O)c2cc(NC(=O)[C@H](CCCCN)NC(=O)c3cc(NC(=O)[C@H](CCCCN)NC(=O)c4cc(NC(=O)[C@H](C)N)ccc4OC)ccc3OC)ccc2OC)cc1C(N)=O` [Compound 233], the EC50 in the test on Unfractionated heparin came out at 1.59 µM; with enoxaparin, 0.376 µM; with tinzaparin it was 0.268 µM; in the test with fondaparinux it was 3.46 µM.
As to `COc1ccc(NC(=O)[C@H](CCCNC(=N)N)NC(=O)c2cc(NC(=O)[C@@H](N)CCCNC(=N)N)ccc2OC)cc1C(=O)N[C@@H](CCCNC(=N)N)C(=O)Nc1ccc(OC)c(C(=O)N[C@@H](CCCNC(=N)N)C(=O)Nc2ccc(OC)c(C(=O)N3CCC[C@H]3C(N)=O)c2)c1` [Compound 234], the EC50 is over 10 µM with Unfractionated heparin, 1.01 µM in the test on enoxaparin, 0.446 µM in the test on tinzaparin and over 10 µM in the test with fondaparinux.
Consider `CSc1ccc(NC(=O)[C@H](CCCNC(=N)N)NC(=O)c2cc(NC(=O)[C@H](CCCNC(=N)N)NC(=O)c3cc(NC(=O)[C@H](CCCNC(=N)N)NC(=O)c4cc(NC(=O)[C@@H](N)CCCNC(=N)N)ccc4SC)ccc3SC)ccc2SC)cc1C(N)=O` [Compound 235], for which the half-maximal effective concentration (EC50) with Unfractionated heparin is over 10 µM; in the test on enoxaparin it was 0.497 µM; in the test on tinzaparin, 0.433 µM; with fondaparinux it was 10.7 µM.
Regarding `COc1ccc(NC(=O)[C@H](CCCCN)NC(=O)c2cc(NC(=O)[C@H](CCCCN)NC(=O)c3cc(NC(=O)[C@H](CCCCN)NC(=O)c4c[nH]c5ccccc45)ccc3OC)ccc2OC)cc1C(N)=O` [Compound 238], the EC50 was 5.34 µM in the test with Unfractionated heparin, 0.839 µM in the test on enoxaparin, 0.581 µM with tinzaparin and 1.86 µM in the test with fondaparinux.
As to `COc1ccc(NC(=O)[C@H](CCCCN)NC(=O)c2cc(NC(=O)[C@H](CCCCN)NC(=O)c3cc(NC(=O)[C@H](CCCCN)NC(=O)c4cc(NC(=O)[C@@H](N)CCCCN)cc(C(F)(F)F)c4)ccc3OC)ccc2OC)cc1C(N)=O` [Compound 239], the EC50 in the test on Unfractionated heparin turned out to be 4.26 µM; in the test with enoxaparin it was 0.241 µM; in the test on tinzaparin, 0.124 µM; with fondaparinux, 4 µM.
For `COc1ccc(NC(=O)[C@H](CCCCN)NC(=O)c2cc(NC(=O)[C@H](CCCCN)NC(=O)c3cc(NC(=O)[C@H](CCCCN)NC(=O)c4cc(N)cc(C(F)(F)F)c4)ccc3OC)ccc2OC)cc1C(N)=O` [Compound 240], the EC50 in the test with Unfractionated heparin was over 10 µM; in the test on enoxaparin it was 0.633 µM; with tinzaparin, 0.401 µM; in the test on fondaparinux it was 2.09 µM.
For `COc1ccc(NC(=O)[C@H](CCCCN)NC(=O)c2cc(NC(=O)[C@H](CCCCN)NC(=O)c3cc(NC(=O)[C@H](CCCCN)NC(=O)c4ccc(NC(=O)[C@@H](N)CCCCN)cc4)ccc3OC)ccc2OC)cc1C(N)=O` [Compound 241] the same measures were 5.44 µM, 0.431 µM, 0.167 µM and over 10 µM.
Take `COc1ccc(NC(=O)[C@H](CCCCN)NC(=O)c2cc(NC(=O)[C@H](CCCCN)NC(=O)c3cc(NC(=O)[C@H](CCCCN)NC(=O)c4cccc(N(C)C(=O)[C@@H](N)CCCCN)c4)ccc3OC)ccc2OC)cc1C(N)=O` [Compound 242]: the EC50 in the test on Unfractionated heparin was 1.39 µM; with enoxaparin, over 5 µM; with tinzaparin, over 5 µM; in the test with fondaparinux, over 10 µM.
As for `CNc1cccc(C(=O)N[C@@H](CCCCN)C(=O)Nc2ccc(OC)c(C(=O)N[C@@H](CCCCN)C(=O)Nc3ccc(OC)c(C(=O)N[C@@H](CCCCN)C(=O)Nc4ccc(OC)c(C(N)=O)c4)c3)c2)c1` [Compound 243], the concentration giving a half-maximal response (EC50) in the test with Unfractionated heparin was found to be 2.9 µM; with enoxaparin, 1.15 µM; in the test with tinzaparin, 0.752 µM; in the test on fondaparinux, 5.91 µM.
For `COc1ccc(NC(=O)[C@H](CCCCN)NC(=O)c2cc(NC(=O)[C@H](CCCCN)NC(=O)c3cc(NC(=O)[C@H](CCCCN)NC(=O)c4ccc(NC(=O)[C@@H](N)CCCCN)cc4OC)ccc3OC)ccc2OC)cc1C(N)=O` [Compound 244] the same measures were 1.46 µM, 0.229 µM, 0.113 µM and 4.71 µM.
For `COc1ccc(NC(=O)[C@H](CCCCN)NC(=O)c2cc(NC(=O)[C@H](CCCCN)NC(=O)c3cc(NC(=O)[C@H](CCCCN)NC(=O)c4cc(NC(=O)[C@@H](N)CCCCN)ccc4SC)ccc3OC)ccc2OC)cc1C(N)=O` [Compound 245], the concentration giving a half-maximal response (EC50) with Unfractionated heparin is 1.31 µM and 1.46 µM; in the test with enoxaparin it was 0.256 µM and 0.224 µM; in the test with tinzaparin, 0.118 µM and 0.125 µM; in the test on fondaparinux it was 4.01 µM and 3.19 µM.
Turning to `COc1ccc(NC(=O)[C@H](CCCCN)NC(=O)c2cc(NC(=O)[C@H](CCCCN)NC(=O)c3cc(NC(=O)[C@H](CCCCN)NC(=O)c4cnc(N)s4)ccc3OC)ccc2OC)cc1C(N)=O` [Compound 247], the EC50 is 2.57 µM in the test on Unfractionated heparin, 3.14 µM in the test on enoxaparin, 1.35 µM in the test on tinzaparin and over 10 µM with fondaparinux.
For `COc1ccc(NC(=O)[C@H](CCCCN)NC(=O)c2cc(NC(=O)[C@H](CCCCN)NC(=O)c3cc(NC(=O)[C@H](CCCCN)NC(=O)c4cc(C(=O)NCCCCCN)c(OC)cc4OC)ccc3OC)ccc2OC)cc1C(N)=O` [Compound 248] the same measures were 2.08 µM, 0.208 µM, 0.158 µM and 1.84 µM.
On to `COC(=O)c1cc(NC(=O)[C@H](CCCCN)NC(=O)c2cc(NC(=O)[C@H](CCCCN)NC(=O)c3cc(NC(=O)[C@H](CCCCN)NC(=O)c4cc(NC(=O)[C@@H](N)CCCCN)ccc4OC)ccc3OC)ccc2OC)ccc1OC` [Compound 249], for which the EC50 was determined as 1.42 µM in the test with Unfractionated heparin, 0.466 µM in the test with enoxaparin, 0.215 µM in the test on tinzaparin and 10.6 µM in the test on fondaparinux.
For `COc1ccc(NC(=O)[C@H](CCCCN)NC(=O)c2cc(NC(=O)[C@H](CCCCN)NC(=O)c3cc(NC(=O)[C@H](CCCCN)NC(=O)c4cc(NC(=O)[C@@H](N)CCCCN)ccc4OC)ccc3SC)ccc2OC)cc1C(N)=O` [Compound 251] the same measures were over 10 µM, over 5 µM, over 5 µM and over 10 µM.
In the case of `COc1ccc(NC(=O)[C@H](CCCCN)NC(=O)c2cc(NC(=O)[C@H](CCCCN)NC(=O)c3cc(NC(=O)[C@H](CCCCN)NC(=O)c4cc(NC(=O)[C@@H](N)CCCCN)ccc4OC)ccc3OC)ccc2SC)cc1C(N)=O` [Compound 252], the EC50 is over 10 µM in the test with Unfractionated heparin, over 5 µM in the test with enoxaparin, over 5 µM in the test on tinzaparin and over 10 µM in the test with fondaparinux.
For `COc1ccc(NC(=O)[C@H](CCCCN)NC(=O)c2cc(NC(=O)[C@@H](N)CCCCN)ccc2OC)cc1C(=O)N[C@@H](CCCCN)C(=O)Nc1ccc(OC)c(C(=O)N[C@@H](CCCCN)C(=O)Nc2ccc(SC)c(C(N)=O)c2)c1` [Compound 253], the EC50 in the test on Unfractionated heparin was 1.66 µM; in the test with enoxaparin it was 1.07 µM; in the test with tinzaparin, 0.472 µM; with fondaparinux it was over 10 µM.
